Values quoted from earlier work in patent publication US20220023314A1, “STABLE FORMULATIONS OF ANESTHETICS AND […] FORMS” (HALO SCIENCE LLC, priority 2018, published 2022).

Conditions: in vivo

C[C@]12CC[C@@H](O)C[C@@H]1CC[C@H]1[C@@H]3CC[C@H](C(=O)CO)[C@@]3(C)CC(=O)[C@@H]12 [Alphadolone]
potency relative to alphaxalone: half as potent
